Experimental data published in US20170176446A1, “Methods for Determining the Oncogenic Condition of Cell, Uses Thereof, and Methods for Treating Cancer” (INSERM (INSTITUT NATIONAL DE LA SANTE ET DE LA RECHERCHE …, priority 2009, published 2017).

Key:
HeLa = test: Inhibition of OCDO production by PBPE in HeLa; assay type: cell-based; conditions: Homo sapiens, 40 μM PBPE, 48 hours
Method: An analogous experiment was reproduced with different cell lines, with the cells tested being incubated for 48 hours in a 40 μM solution of PBPE. It was noted that the OCDO was 100% inhibited for all the lines in the following table that were tested:
Generally, in order to establish the percentages of OCDO inhibition from the thin-layer chromatography (TLC) plates obtained as in assay 2, the radioactive metabolites are identified and quantified on the basis of said plates using a europium-sensitive plate of GP Phosphor screen type (GE Healthcare) and a Storm 840 phosphorimagor (GE Healthcare). The proportion of radiolabeled oxysterols is determined on the autoradiogram obtained by densitometry using the Image Quant 5.2 software. The percentage is calculated on the basis of the ratio between the amount of oxysterols quantified divided by the sum of the amounts of oxysterols (CEE+CE+CT+OCDO). Since the CEE (CE ester) originates exclusively from the CE, the percentage CE is calculated on the basis of the ratio (CE+CEE)/(CE+CEE+CT+OCDO).

OCDO = OCDO content of TS/A tumors by GC/MS; assay type: in vivo, mice; conditions: PBPE 40 μM, 100 μl intratumorally once a day
Method: 5 volumes (relative to the mass removed) of buffer (50 mM Tris-HCl, 150 mM KCl, pH=7.4) are added. The tumors are ground and the homogenates are centrifuged for 5 minutes at 2500 rpm at 4° C. […] After centrifugation (to separate the phases), the organic phase is recovered. The organic phase is evaporated to dryness and then the residue is taken up with 0.5 ml of chloroform. The organic extracts are filtered on 0.5 ml silica cartridges. The polar sterols are eluted sequentially:
1) 0.5 ml of a hexane/chloroform mixture (1/1), 2) 0.5 ml of chloroform, 3) 0.5 ml of ethyl acetate and methanol.
The ethyl acetate fractions are evaporated, silylated (50 μl 1/1 acetonitrile/BSTFA) and then analyzed by GC/MS (2 μl) according to the conditions described above.

TS/A cells = test: Tumor size of TS/A tumors implanted in BALB/c mice, intratumoral treatment; assay type: in vivo; conditions: PBPE 40 μM, 100 μl intratumorally once a day
Method: A cell culture of TS/A cells was first performed. These TS/A cells are mouse mammary adenocarcinomas (see Nanni P et al., Clin. Exp. Metastasis, 1983 October-December; 1(4): 373-80). The cells are cultured, at 37° C. under 5% CO2, in a DMEM medium supplemented with 2 g/liter of sodium carbonate, 1.2 mM of glutamine (pH 7.4 at 23° C.), 5% of fetal bovine serum (Gibco) and 2.5 ml of antibiotics per liter of medium (penicillin/streptomycin).
The TS/A cells are recovered with trypsin, washed twice and suspended in PBS buffer. The TS/A cells (approximately 4×10^6 […] cells/0.1 ml) are then injected subcutaneously into the flank of 6-week-old female BALB/c mice (supplied by Charles River). […] The animals (10 mice per group) are monitored regularly for tumor development. The volume of the tumors is calculated according to the following formula: L×l^2×0.5 (L is the length and l is the width of the tumor). The experiment was reproduced twice. The results are given in FIG. 18 (the arrow indicates the beginning of the treatment).

c1ccc(Cc2ccc(OCCN3CCCC3)cc2)cc1 [PBPE, N,N-pyrrolidino-[(4-benzyl)phenoxy]ethanamine]
inhibition at 40 µM (HeLa): 100% | OCDO (% control) (OCDO; Day 28): 22.5 ± 5 % control | OCDO (% control) (OCDO; Day 37): 9.6 ± 5 % control | Tumor size (% control) (TS/A cells; Day 28): 71.6 ± 7 % control | Tumor size (% control) (TS/A cells; Day 37): 54.5 ± 8 % control
